Measurements reported in the supplement of paper PMC10883282.

Legend:
Assay in all cases: relative viability vs DMSO control (72 h) (fraction); higher = more viable cells
[1] = system: G401
Summary of the method: (§1)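 Sarcoma cell lines were seeded in 384-well plates at densities chosen for 80–90% confluence, then 24 h later given 2.5 µl of serially diluted compound drawn from source plates spanning 10 mM to 0.0002 mM. They were held 72 h at 37 °C, 5% CO2, with 0.1% DMSO vehicle and a 5 µM positive control included. Relative viability was read with ATPLite as percent growth and averaged over up to triplicate wells. Rescaling placed full at 1 and none at 0.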

[2] = system: VA-ES-BJ
Summary of the method: as §1

[3] = system: SW872
Summary of the method: as §1

[4] = system: KHOS-240S
Summary of the method: as §1

[5] = system: SK-LMS-1
Summary of the method: as §1

[6] = system: SW982
Summary of the method: as §1

[7] = system: A204
Summary of the method: as §1

[8] = system: RD
Summary of the method: as §1

[9] = system: MES-SA
Summary of the method: as §1

[10] = system: SK-ES-1
Summary of the method: as §1

[11] = system: SW1353
Summary of the method: as §1

[12] = system: HS729
Summary of the method: as §1

O=C(/C=C\n1cnc(-c2cc(C(F)(F)F)cc(C(F)(F)F)c2)n1)NNc1cnccn1 [Selinexor]
Conditions | relative viability
[1], 0.00017 µM | 1.07
[1], 0.00051 µM | 1.05
[1], 0.00152 µM | 1.04
[1], 0.00457 µM | 0.985
[1], 0.01372 µM | 0.943
[1], 0.04115 µM | 0.8726
[1], 0.1235 µM | 0.743
[1], 0.3704 µM | 0.463
[1], 1.111 µM | 0.366
[1], 3.333 µM | 0.272
[1], 10 µM | 0.235
[2], 0.00017 µM | 1.1
[2], 0.00051 µM | 1.09
[2], 0.00152 µM | 1.08
[2], 0.00457 µM | 1.03
[2], 0.01372 µM | 0.953
[2], 0.04115 µM | 0.78
[2], 0.1235 µM | 0.565
[2], 0.3704 µM | 0.318
[2], 1.111 µM | 0.198
[2], 3.333 µM | 0.187
[2], 10 µM | 0.165
[3], 0.00017 µM | 1.065
[3], 0.00051 µM | 1.07
[3], 0.00152 µM | 1.075
[3], 0.00457 µM | 1.07
[3], 0.01372 µM | 1.06
[3], 0.04115 µM | 0.989
[3], 0.1235 µM | 0.823
[3], 0.3704 µM | 0.752
[3], 1.111 µM | 0.537
[3], 3.333 µM | 0.365
[3], 10 µM | 0.306
[4], 0.00017 µM | 1.08
[4], 0.00051 µM | 1.11
[4], 0.00152 µM | 1.08
[4], 0.00457 µM | 1.08
[4], 0.01372 µM | 1.07
[4], 0.04115 µM | 0.845
[4], 0.1235 µM | 0.511
[4], 0.3704 µM | 0.249
[4], 1.111 µM | 0.188
[4], 3.333 µM | 0.0642
[4], 10 µM | 0.0639
[5], 0.00017 µM | 1.03
[5], 0.00051 µM | 1.03
[5], 0.00152 µM | 0.98
[5], 0.00457 µM | 0.95
[5], 0.01372 µM | 0.856
[5], 0.04115 µM | 0.736
[5], 0.1235 µM | 0.512
[5], 0.3704 µM | 0.319
[5], 1.111 µM | 0.241
[5], 3.333 µM | 0.246
[5], 10 µM | 0.234
[6], 0.00017 µM | 1.06
[6], 0.00051 µM | 1.07
[6], 0.00152 µM | 1.08
[6], 0.00457 µM | 1.07
[6], 0.01372 µM | 1.08
[6], 0.04115 µM | 0.918
[6], 0.1235 µM | 0.53
[6], 0.3704 µM | 0.292
[6], 1.111 µM | 0.211
[6], 3.333 µM | 0.161
[6], 10 µM | 0.177
[7], 0.00017 µM | 1.1
[7], 0.00051 µM | 1.11
[7], 0.00152 µM | 1.08
[7], 0.00457 µM | 1.08
[7], 0.01372 µM | 0.996
[7], 0.04115 µM | 0.884
[7], 0.1235 µM | 0.677
[7], 0.3704 µM | 0.441
[7], 1.111 µM | 0.299
[7], 3.333 µM | 0.218
[7], 10 µM | 0.171
[8], 0.00017 µM | 1.052
[8], 0.00051 µM | 1.08
[8], 0.00152 µM | 1.09
[8], 0.00457 µM | 1.07
[8], 0.01372 µM | 1.01
[8], 0.04115 µM | 0.943
[8], 0.1235 µM | 0.754
[8], 0.3704 µM | 0.51007
[8], 1.111 µM | 0.404
[8], 3.333 µM | 0.304
[8], 10 µM | 0.252
[9], 0.00017 µM | 1.011
[9], 0.00051 µM | 0.985
[9], 0.00152 µM | 0.971
[9], 0.00457 µM | 0.965
[9], 0.01372 µM | 0.911
[9], 0.04115 µM | 0.808
[9], 0.1235 µM | 0.4844
[9], 0.3704 µM | 0.342
[9], 1.111 µM | 0.255
[9], 3.333 µM | 0.189
[9], 10 µM | 0.1447
[10], 0.00017 µM | 1.05
[10], 0.00051 µM | 1.06
[10], 0.00152 µM | 1.04
[10], 0.00457 µM | 1.05
[10], 0.01372 µM | 0.953
[10], 0.04115 µM | 0.515
[10], 0.1235 µM | 0.0598
[10], 0.3704 µM | 0.014
[10], 1.111 µM | 0.0115
[10], 3.333 µM | 0.0084
[10], 10 µM | 0.013
[11], 0.00017 µM | 1.11
[11], 0.00051 µM | 1.06
[11], 0.00152 µM | 1.12
[11], 0.00457 µM | 1.05
[11], 0.01372 µM | 1.03
[11], 0.04115 µM | 0.999
[11], 0.1235 µM | 0.883
[11], 0.3704 µM | 0.792
[11], 1.111 µM | 0.672
[11], 3.333 µM | 0.616
[11], 10 µM | 0.511
[12], 0.00017 µM | 1.07
[12], 0.00051 µM | 1.06
[12], 0.00152 µM | 1.05
[12], 0.00457 µM | 0.98
[12], 0.01372 µM | 0.929
[12], 0.04115 µM | 0.835
[12], 0.1235 µM | 0.7742
[12], 0.3704 µM | 0.741
[12], 1.111 µM | 0.676
[12], 3.333 µM | 0.602
[12], 10 µM | 0.499

Cc1cc(F)c(C(=O)Nc2cccc(-c3nncn3C(C)C)n2)cc1-n1cnc(C2CC2)c1 [Selonsertib]
Conditions | relative viability
[1], 0.00017 µM | 1.02
[1], 0.00051 µM | 0.988
[1], 0.00152 µM | 1.01
[1], 0.00457 µM | 1.01
[1], 0.01372 µM | 0.995
[1], 0.04115 µM | 1.04
[1], 0.1235 µM | 1.01
[1], 0.3704 µM | 0.994
[1], 1.111 µM | 0.979
[1], 3.333 µM | 0.882
[1], 10 µM | 0.684
[2], 0.00017 µM | 0.995
[2], 0.00051 µM | 0.995
[2], 0.00152 µM | 1.01
[2], 0.00457 µM | 0.972
[2], 0.01372 µM | 0.989
[2], 0.04115 µM | 0.977
[2], 0.1235 µM | 0.967
[2], 0.3704 µM | 0.969
[2], 1.111 µM | 0.938
[2], 3.333 µM | 0.918
[2], 10 µM | 0.848
[3], 0.00017 µM | 0.995
[3], 0.00051 µM | 1
[3], 0.00152 µM | 1.02
[3], 0.00457 µM | 1.03
[3], 0.01372 µM | 1.03
[3], 0.04115 µM | 1.04
[3], 0.1235 µM | 1.06
[3], 0.3704 µM | 1.05
[3], 1.111 µM | 1.08
[3], 3.333 µM | 1.07
[3], 10 µM | 1.05
[4], 0.00017 µM | 1.05
[4], 0.00051 µM | 1.07
[4], 0.00152 µM | 1.04
[4], 0.00457 µM | 1.06
[4], 0.01372 µM | 1.07
[4], 0.04115 µM | 1.06
[4], 0.1235 µM | 1.07
[4], 0.3704 µM | 1.06
[4], 1.111 µM | 1.03
[4], 3.333 µM | 0.983
[4], 10 µM | 0.736
[5], 0.00017 µM | 1.07
[5], 0.00051 µM | 1.08
[5], 0.00152 µM | 1.08
[5], 0.00457 µM | 1.09
[5], 0.01372 µM | 1.11
[5], 0.04115 µM | 1.09
[5], 0.1235 µM | 1.09
[5], 0.3704 µM | 1.09
[5], 1.111 µM | 1.04
[5], 3.333 µM | 1.05
[5], 10 µM | 0.898
[6], 0.00017 µM | 1.05
[6], 0.00051 µM | 1.05
[6], 0.00152 µM | 1.07
[6], 0.00457 µM | 1.05
[6], 0.01372 µM | 1.08
[6], 0.04115 µM | 1.09
[6], 0.1235 µM | 1.07
[6], 0.3704 µM | 1.09
[6], 1.111 µM | 1.09
[6], 3.333 µM | 1.1
[6], 10 µM | 1.07
[7], 0.00017 µM | 1.07
[7], 0.00051 µM | 1.02
[7], 0.00152 µM | 1.03
[7], 0.00457 µM | 1.09
[7], 0.01372 µM | 1.07
[7], 0.04115 µM | 1.08
[7], 0.1235 µM | 1.1
[7], 0.3704 µM | 1.07
[7], 1.111 µM | 1.01
[7], 3.333 µM | 0.802
[7], 10 µM | 0.389
[8], 0.00017 µM | 1.11
[8], 0.00051 µM | 1.11
[8], 0.00152 µM | 1.09
[8], 0.00457 µM | 1.1
[8], 0.01372 µM | 1.11
[8], 0.04115 µM | 1.1
[8], 0.1235 µM | 1.09
[8], 0.3704 µM | 1.11
[8], 1.111 µM | 1.12
[8], 3.333 µM | 1.11
[8], 10 µM | 1.11
[9], 0.00017 µM | 0.887
[9], 0.00051 µM | 0.892
[9], 0.00152 µM | 0.907
[9], 0.00457 µM | 0.893
[9], 0.01372 µM | 0.895
[9], 0.04115 µM | 0.93
[9], 0.1235 µM | 0.928
[9], 0.3704 µM | 0.912
[9], 1.111 µM | 0.87
[9], 3.333 µM | 0.78
[9], 10 µM | 0.368
[10], 0.00017 µM | 1.01
[10], 0.00051 µM | 1.05
[10], 0.00152 µM | 1.03
[10], 0.00457 µM | 1.09
[10], 0.01372 µM | 1.08
[10], 0.04115 µM | 1.03
[10], 0.1235 µM | 1.03
[10], 0.3704 µM | 1.01
[10], 1.111 µM | 0.988
[10], 3.333 µM | 0.896
[10], 10 µM | 0.313
[11], 0.00017 µM | 0.962
[11], 0.00051 µM | 0.977
[11], 0.00152 µM | 0.951
[11], 0.00457 µM | 0.95
[11], 0.01372 µM | 0.934
[11], 0.04115 µM | 0.953
[11], 0.1235 µM | 0.968
[11], 0.3704 µM | 0.994
[11], 1.111 µM | 0.986
[11], 3.333 µM | 0.977
[11], 10 µM | 0.964
[12], 0.00017 µM | 0.914
[12], 0.00051 µM | 0.917
[12], 0.00152 µM | 0.92
[12], 0.00457 µM | 0.973
[12], 0.01372 µM | 0.936
[12], 0.04115 µM | 0.942
[12], 0.1235 µM | 0.888
[12], 0.3704 µM | 0.933
[12], 1.111 µM | 0.875
[12], 3.333 µM | 0.94
[12], 10 µM | 0.943
